Test results from patent US11433053B2, “LSD1 inhibitor and preparation method and application thereof” (CSPC ZHONGQI PHARMACEUTICAL TECHNOLOGY (SHIJIAZHUANG) CO., …, priority 2017, dated 2022).
pIC50: −log10 of the molar value.

Tests used:
human LSD1 = human LSD1 (Homo sapiens (Human), UniProt O60341); assay: Evaluation of enzyme activity: LSD1 fluorescence coupling enzyme assay (HRP/Amplex Red); format: biochemical; details: human LSD1, histone H3(1-21)K4me2 peptide 10 μM, 30 min pre-incubation
Outline: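 Human LSD1 preincubated 30 min with compound, then reacted with H3(1-21)K4me2 peptide (10 μM). FAD-dependent H2O2 detected via HRP/Amplex Red fluorescence (Ex/Em 535/590). Ten-dose, 3-fold dilutions in duplicate from 10 μM gave IC50s, binned into activity classes.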

H1417 cells = assay: Cell proliferation inhibitory activity on H1417 cells (CellTiter-Glo, 10 days); format: cell-based, human; details: Homo sapiens; for pIC50: NCI-H1417, 240 h, H1417 cells, 10 days incubation; for Emax: NCI-H1417, H1417 cells, highest percentage inhibition of cell viability, read-out: Maximum inhibition percentage (%)
Outline: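 H1417 cells in RPMI 1640 with fetal bovine serum were treated with 10-point 3-fold compound dilutions for 10 days. Viability was read by CellTiter-Glo luminescence. IC50 came from a four-parameter fit of percent inhibition, and maximal inhibition was also categorized.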

hERG potassium channel = hERG potassium channel (Homo sapiens (Human), UniProt Q12809); assay: Assay on inhibiting hERG potassium channel (automatic patch clamp, CHO-hERG cells); format: cell-based; details: Qpatch, max test concentration 40 μM
Procedure: Experimental purpose: Using automatic patch clamp method to detect the effect of the sample to be tested on hERG potassium channel.
4.1.1 CHO-hERG cells were cultured in 175 cm^2 flasks. When the cell density was increased to 60-80%, the culture solution was removed and the resultant was washed with 7 mL PBS (Phosphate Buffered Saline phosphate buffer), then 3 mL of digestive juice was added to digest.
4.1.2 After the digestion finished, 7 mL culture solution was added to neutralize. Then centrifuge, aspirate the supernatant, and then resuspend by adding 5 mL culture solution to ensure a cell density of 2-5×10^6/mL.
Single cell high impedance sealing and whole cell pattern formation were all done automatically by the Qpatch instrument. After the whole-cell recording mode was obtained, the cells were clamped at −80 mV. 50-Millisecond−50 mV preamplifier was applied prior to a 5 second+40 mV depolarization stimulus. Then the voltage was repolarized to −50 mV for 5 seconds and back to −80 mV. This voltage stimulation was applied every 15 seconds, and the extracellular fluid was recorded over 5 minutes after 2 minutes' record, and then the administration process was started. The compound concentration was started from the lowest test concentration, and each test concentration was given for 2.5 minutes. Test at least 3 cells (n≥3) for each concentration.
4.4.1 Dilute 20 mM mother liquor of the compound with extracellular fluid 5 μL of 20 mM mother liquor of the compound was added to 2495 μL extracellular fluid, and the mixture was 500-fold diluted to 40 μM. Then 0.2% DMSO in extracellular fluid was 3-fold diluted sequentially to obtain the final concentration to be tested.
4.4.2 The max test concentration was 40 μM, 6 concentrations were 40, 13.33, 4.44, 1.48, 0.49, and 0.16 μM respectively.
Experimental data was analyzed by XLFit software.

[1] = tested on: human small cell lung cancer NCI-H1417 cells subcutaneous xenograft tumor; assay: In vivo pharmacodynamic study, NCI-H1417 subcutaneous xenograft tumor CB-17 SCID mouse model; set-up: species or system CB-17 SCID mice; details: 1.5 mg/kg, PO, QD; day 27 after administration
Procedure: The purpose of this experiment was to investigate the efficacy of some of the compounds of the present invention in the in vivo xenograft tumor of human small cell lung cancer NCI-H1417 cells in a CB-17 SCID mouse model.
Week age and weight: 6-8 weeks old, weight 18-23 g
Human small cell lung cancer NCI-H1417 cells were cultured in vitro in a single layer cultured in RPMI-1640 medium (Sigma-aldrich, R0883), supplemented with 10% fetal bovine serum and cultured at 37° C. 5% CO2. When the cell saturation is 80%-90%. The cells are harvested, counted, and inoculated.
0.2 mL of 10×10^6 (NCI-H1417 cells were subcutaneously inoculated into the right back of each mouse (PBS:Matrigel=1:1). After 21 days of tumor inoculation, group administration was started when the average volume reached 107 mm^3.
The experimental solvent was the 10% hydroxypropyl-β-cyclodextrin solution. The preparation method was as follows: 100 g of hydroxypropyl-β-cyclodextrin was weighed into a 1000 mL jar, 800 mL of ultrapure water was added, stirred overnight until completely dissolved, and then made up to 1000 mL. The test substance was dissolved in a solvent, and was prepared into a uniform solution of a certain concentration and stored at 4° C.
The experimental indicator is to investigate whether tumor growth is inhibited, delayed or cured. Tumor diameters were measured twice a week using vernier calipers. The tumor volume is calculated as: V=0.5a×b^2, and a and b represent the long and short diameters of the tumor, respectively.
The antitumor effect of the compound was evaluated by TG (%). TGI (%), reflecting the tumor growth inhibition rate. TGI (%) calculation: TGI (%)=[1−(the average tumor volume at the end of a treatment group−the average tumor volume at the beginning of the treatment group)/(the average tumor volume at the end of the treatment of the solvent control group−The average tumor volume at the start of treatment in the solvent control group) was ×100%. Solvent control: Vehicle (10% hydroxypropyl-β-cyclodextrin solution).

Sequence of hERG potassium channel (Q12809 whole entry): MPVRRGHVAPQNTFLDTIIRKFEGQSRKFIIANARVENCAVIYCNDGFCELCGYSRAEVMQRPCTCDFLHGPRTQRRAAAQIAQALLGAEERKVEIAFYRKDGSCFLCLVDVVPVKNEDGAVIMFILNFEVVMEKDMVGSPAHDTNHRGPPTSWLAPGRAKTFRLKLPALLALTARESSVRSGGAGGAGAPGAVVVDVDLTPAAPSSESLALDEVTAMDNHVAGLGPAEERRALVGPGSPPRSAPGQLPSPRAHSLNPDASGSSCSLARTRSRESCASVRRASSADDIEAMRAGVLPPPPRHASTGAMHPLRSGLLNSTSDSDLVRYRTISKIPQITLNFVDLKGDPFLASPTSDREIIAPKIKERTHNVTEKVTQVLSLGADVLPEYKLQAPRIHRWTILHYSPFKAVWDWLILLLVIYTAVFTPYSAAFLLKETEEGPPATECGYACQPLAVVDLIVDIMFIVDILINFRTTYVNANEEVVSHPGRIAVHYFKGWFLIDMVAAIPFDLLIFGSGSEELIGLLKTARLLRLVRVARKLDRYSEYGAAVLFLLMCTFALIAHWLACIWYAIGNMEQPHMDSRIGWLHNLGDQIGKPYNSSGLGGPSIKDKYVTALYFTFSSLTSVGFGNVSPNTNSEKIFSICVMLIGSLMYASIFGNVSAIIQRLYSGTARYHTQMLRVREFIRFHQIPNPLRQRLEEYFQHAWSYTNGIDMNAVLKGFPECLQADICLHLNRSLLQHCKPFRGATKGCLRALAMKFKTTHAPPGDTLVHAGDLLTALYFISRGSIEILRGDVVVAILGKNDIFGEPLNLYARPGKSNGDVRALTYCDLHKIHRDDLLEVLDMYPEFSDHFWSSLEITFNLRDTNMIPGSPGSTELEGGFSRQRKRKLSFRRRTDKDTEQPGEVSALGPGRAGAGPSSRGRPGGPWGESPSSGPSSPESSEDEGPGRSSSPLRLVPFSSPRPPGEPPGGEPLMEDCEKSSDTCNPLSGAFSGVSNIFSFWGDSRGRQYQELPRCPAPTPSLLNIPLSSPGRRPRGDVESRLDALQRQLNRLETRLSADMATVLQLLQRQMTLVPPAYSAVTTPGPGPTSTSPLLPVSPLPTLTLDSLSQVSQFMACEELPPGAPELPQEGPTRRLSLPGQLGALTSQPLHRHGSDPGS

pIC50 (human LSD1)	pIC50 (H1417 cells)	SMILES	Emax (H1417 cells) [%]	pIC50 (hERG potassium channel)	TGI (%) [1] [%]	Tumor volume (mm^3) (Day 27) [1]
≥ 7.30	6.00 to 6.30	N[C@H]1C[C@H](c2nc(C3(CN[C@@H]4C[C@H]4c4ccccc4)CC3)no2)C1 [Example 146]	90 to 100	< 4.40	–	–
≥ 7.30	6.30 to 7.00	NC12CCC(c3nc(C4(CN[C@@H]5C[C@H]5c5ccccc5)CC4)no3)(CC1)CC2 [Example 155]	90 to 100	< 4.40	78.7	200 ± 15
7.00 to 7.30	6.00 to 6.30	CN[C@H]1CC[C@H](c2nc(C3(CN[C@@H]4C[C@H]4c4ccccc4)CC3)no2)CC1 [Example 232]	70 to 90	< 4.40	51.1	313 ± 28
